Measurements published in ChEMBL document CHEMBL5550186, “Exploring the Potential of Cyclic Peptidyl Antitumor Agents Derived from Natural Macrocyclic Peptide Phakellistatin 13” (J Med Chem, 2024).
Starred links: 1 amine or outer side, 2 acyl side, 3 side chain; linkers in the order of their positions; H or OH if unused. Non-standard residues stand in square brackets, D forms with d. Residues, ends and D or L forms follow the SMILES beside them. *: point of attachment. X1 = O=C1c2ccccc2[C@@](O)(CN(Cc2ccccc2)[*:1])N1CC(=O)[*:2]; X2 = O=C1c2ccccc2[C@](O)(CN(Cc2ccccc2)[*:1])N1CC(=O)[*:2]; Bn = c1ccc(C*)cc1

Key:
4T1 = experiment: Antiproliferative activity against mouse 4T1 cells incubated for 48 hrs by MTT assay; assay type: functional, cell-based; details: 4T1, 48 h
HepG2 = experiment: Antiproliferative activity against human HepG2 cells incubated for 48 hrs by MTT assay; assay type: functional, cell-based; details: HepG2, 48 h
HeLa = experiment: Antiproliferative activity against human HeLa cells incubated for 48 hrs by MTT assay; assay type: functional, cell-based
[1] = Antiproliferative activity against mouse L929 cells incubated for 48 hrs by MTT assay; assay type: toxicity, cell-based
MDA-MB-231 = experiment: Antiproliferative activity against human MDA-MB-231 cells incubated for 48 hrs by MTT assay; assay type: functional, cell-based; details: MDA-MB-231, 48 h
BEL-7404 tumor cell line = experiment: Antiproliferative activity against human BEL-7404 tumor cell line incubated for 48 hrs by MTT assay; assay type: functional, cell-based; details: BEL-7404, 48 h

SMILES	IC50 (4T1) [µM]	IC50 (HepG2) [µM]	IC50 (HeLa) [µM]	IC50 at 48 h [1] [µM]	IC50 (MDA-MB-231) [µM]	IC50 (BEL-7404 tumor cell line) [µM]
CC(C)C[C@@H]1NC(=O)CN2C(=O)c3ccccc3[C@]2(O)CN(Cc2ccccc2)C(=O)[C@H]([C@@H](C)OCc2ccccc2)NC(=O)[C@@H]2CCCN2C(=O)[C@H](Cc2ccccc2)NC(=O)[C@@H]2CCCN2C(=O)[C@H](Cc2c[nH]c3ccccc23)NC1=O (cyclo(FPT(Bn)[X2]LWP))	58.9	35.5	55.6	> 100	32.6	41.7
CC(C)C[C@H]1NC(=O)[C@@H]([C@H](C)OCc2ccccc2)NC(=O)[C@H]2CCCN2C(=O)CN2C(=O)c3ccccc3[C@@]2(O)CN(Cc2ccccc2)C(=O)[C@@H](Cc2ccccc2)NC(=O)[C@H]2CCCN2C(=O)[C@@H](Cc2c[nH]c3ccccc23)NC1=O	42.4	29	31	> 100	17.8	25.7
CC(C)C[C@@H]1NC(=O)[C@H]([C@@H](C)OCc2ccccc2)NC(=O)[C@@H]2CCCN2C(=O)[C@H](Cc2ccccc2)NC(=O)CN2C(=O)c3ccccc3[C@@]2(O)CN(Cc2ccccc2)C(=O)[C@@H]2CCCN2C(=O)[C@H](Cc2c[nH]c3ccccc23)NC1=O (cyclo(FPT(Bn)LWP[X1]))	42.6	28.9	33.9	> 100	29.3	30.2
COc1cccc2c1C(=O)c1c(O)c3c(c(O)c1C2=O)C[C@@](O)(C(=O)CO)C[C@@H]3O[C@H]1C[C@H](N)[C@H](O)[C@H](C)O1 [DOXORUBICIN]	–	26.6	20.9	> 100	–	–
CC(C)C[C@@H]1NC(=O)[C@H]([C@@H](C)OCc2ccccc2)NC(=O)[C@@H]2CCCN2C(=O)CN2C(=O)c3ccccc3[C@@]2(O)CN(Cc2ccccc2)C(=O)[C@H](Cc2ccccc2)NC(=O)[C@@H]2CCCN2C(=O)[C@H](Cc2c[nH]c3ccccc23)NC1=O	54.7	24.1	28.6	> 100	15.4	30
CC(C)C[C@@H]1NC(=O)[C@H]([C@@H](C)O)NC(=O)[C@@H]2CCCN2C(=O)CNC(=O)[C@H](Cc2ccccc2)NC(=O)[C@@H]2CCCN2C(=O)[C@H](Cc2c[nH]c3ccccc23)NC1=O [PHAKELLISTATIN 13] (cyclo(FGPTLWP))	26.8	13.1	28.1	> 100	20.5	49.9
CC(C)C[C@@H]1NC(=O)[C@H]([C@@H](C)OCc2ccccc2)NC(=O)[C@@H]2CCCN2C(=O)[C@H](Cc2ccccc2)NC(=O)[C@@H]2CCCN2C(=O)[C@H](Cc2c[nH]c3ccccc23)NC(=O)CN2C(=O)c3ccccc3[C@@]2(O)CN(Cc2ccccc2)C1=O (cyclo(FPT(Bn)L[X1]WP))	67.5	31.1	35.9	> 100	14.4	28.7
CC(C)C[C@@H]1NC(=O)[C@H]([C@@H](C)OCc2ccccc2)NC(=O)[C@@H]2CCCN2C(=O)[C@H](Cc2ccccc2)NC(=O)[C@@H]2CCCN2C(=O)CN2C(=O)c3ccccc3[C@]2(O)CN(Cc2ccccc2)C(=O)[C@H](Cc2c[nH]c3ccccc23)NC1=O (cyclo(FPT(Bn)LW[X2]P))	65.2	44.3	52.8	> 100	14	36.1
CC(C)C[C@@H]1NC(=O)[C@H]([C@@H](C)OCc2ccccc2)NC(=O)CN2C(=O)c3ccccc3[C@]2(O)CN(Cc2ccccc2)C(=O)[C@@H]2CCCN2C(=O)[C@H](Cc2ccccc2)NC(=O)[C@@H]2CCCN2C(=O)[C@H](Cc2c[nH]c3ccccc23)NC1=O (cyclo(FP[X2]T(Bn)LWP))	65.9	32.6	50.8	> 100	26.1	38.9
